Measured values: ChEMBL document CHEMBL1201862, “PubChem BioAssay data set” (2004)
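Protocol summary: plate cells (96-well), add compound at 5 concentrations, incubate 48 h, interpolate endpoints linearly. Abbreviation: GI50, concentration required for 50% inhibition of growth.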 Active and inactive are the calls of the source. No stated cut-off is given here; in the data, active = GI50 up to about 1.1 µM and inactive = higher.

Key:
Test in all cases: NCI tumour cell line growth inhibition, 48 h
[1] = system: NCI-H23
[2] = system: Malme-3M
[3] = system: OVCAR-4
[4] = system: OVCAR-8
[5] = system: SK-MEL-5
[6] = system: UACC-257
[7] = system: HOP-92
[8] = system: HCC 2998
[9] = system: T47D
[10] = system: MCF7
[11] = system: RPMI-8226
[12] = system: Hs-578T
[13] = system: NCI-H460
[14] = system: MOLT-4
[15] = system: HT-29
[16] = system: DU-145
[17] = system: RXF 393
[18] = system: SN12C
[19] = system: NCI-H226

| Structure (SMILES) | GI50 [1] | GI50 [2] | GI50 [3] | GI50 [4] | GI50 [5] | GI50 [6] | GI50 [7] | GI50 [8] | GI50 [9] | GI50 [10] | GI50 [11] | GI50 [12] | GI50 [13] | GI50 [14] | GI50 [15] | GI50 [16] | GI50 [17] | GI50 [18] | GI50 [19] |
| --- | --- | --- | --- | --- | --- | --- | --- | --- | --- | --- | --- | --- | --- | --- | --- | --- | --- | --- | --- |
| COc1cc(Br)cc2cc(-c3cn4ccsc4n3)c(=O)oc12 | 39.1 µM (inactive) | 91.2 µM (inactive) | 51.2 µM (inactive) | 45.8 µM (inactive) | 19.7 µM (inactive) | 37.6 µM (inactive) | 11.1 µM (inactive) | 7.24 µM (inactive) | 19.6 µM (inactive) | 7.19 µM (inactive) | 33.2 µM (inactive) | 41.5 µM (inactive) | 32 µM (inactive) | 32 µM (inactive) | 40.2 µM (inactive) | 30.5 µM (inactive) | 24.8 µM (inactive) | 28.1 µM (inactive) |  |
| COc1ccc(/C=C2\CCC(CNc3ccc(OC)cc3)C2=O)cc1 (centres undefined) | 14.6 µM (inactive) | 22.6 µM (inactive) | 23.4 µM (inactive) | 17.7 µM (inactive) | 19 µM (inactive) | 17.5 µM (inactive) | 18.9 µM (inactive) | 21.2 µM (inactive) | 18.8 µM (inactive) | 2.61 µM (inactive) |  | 35.4 µM (inactive) | 47.8 µM (inactive) |  | 14.3 µM (inactive) | 39.1 µM (inactive) | 16.2 µM (inactive) | 16 µM (inactive) | > 100 µM (inactive) |
| CCOC(=O)C12OC(CCC1=O)C(C(=O)OC)=C2C(=O)OC (centres undefined) | > 10 µM (inactive) | > 10 µM (inactive) | > 10 µM (inactive) | > 10 µM (inactive) | > 10 µM (inactive) | > 10 µM (inactive) |  | > 10 µM (inactive) | > 10 µM (inactive) | > 10 µM (inactive) | > 10 µM (inactive) | > 10 µM (inactive) | > 10 µM (inactive) | > 10 µM (inactive) | > 10 µM (inactive) | > 10 µM (inactive) | > 10 µM (inactive) | > 10 µM (inactive) | > 10 µM (inactive) |
| C=CC(C)CCC(C/C=C(\C)CCC=C(C)C)C(=C)CCCC(C)C (centres undefined) | > 100 µM (inactive) | > 100 µM (inactive) | > 100 µM (inactive) | > 100 µM (inactive) | > 100 µM (inactive) | > 100 µM (inactive) | > 100 µM (inactive) | > 100 µM (inactive) | > 100 µM (inactive) | > 100 µM (inactive) | > 100 µM (inactive) | > 100 µM (inactive) | > 100 µM (inactive) | > 100 µM (inactive) | > 100 µM (inactive) | > 100 µM (inactive) | > 100 µM (inactive) | > 100 µM (inactive) |  |
| O=C(O)Cc1ccc2c(c1)/C(=C1/Nc3ccccc3C1=O)C(=O)N2 | 39.6 µM (inactive) | 27.4 µM (inactive) | 21.9 µM (inactive) | 32 µM (inactive) | 20.7 µM (inactive) | 32.3 µM (inactive) |  | 36.5 µM (inactive) | 7.71 µM (inactive) | 10.8 µM (inactive) | 27.9 µM (inactive) | 27.8 µM (inactive) | 56.2 µM (inactive) | 25.8 µM (inactive) | 38.8 µM (inactive) | 49.9 µM (inactive) | 17.2 µM (inactive) | 56.1 µM (inactive) | 60.8 µM (inactive) |
| O=C1/C(=C/Cc2ccco2)N=C(c2ccccc2)N1c1nc2c(Cl)cc(Cl)cc2s1 |  |  | 21.3 µM (inactive) | 36 µM (inactive) | 22.5 µM (inactive) | 34.4 µM (inactive) | 27.8 µM (inactive) | 31.7 µM (inactive) | 16.8 µM (inactive) | 25.6 µM (inactive) | 12.4 µM (inactive) | 23.6 µM (inactive) | 32.2 µM (inactive) | 1.02 µM (active) | 30.8 µM (inactive) | 27.4 µM (inactive) | 13.4 µM (inactive) | 27 µM (inactive) |  |
| Nc1ccc(OCCCc2c(-c3ccccc3)[nH]c(N)nc2=O)cc1 | 47.2 µM (inactive) | 26.8 µM (inactive) | 31.6 µM (inactive) | 44.4 µM (inactive) | 41.1 µM (inactive) | 80.5 µM (inactive) |  | 22.8 µM (inactive) | 12.2 µM (inactive) | 40.3 µM (inactive) | 84.9 µM (inactive) | 12.3 µM (inactive) | 24.6 µM (inactive) | 34.5 µM (inactive) | < 0.01 µM (active) | 48.2 µM (inactive) | 63.8 µM (inactive) | 50.7 µM (inactive) | 31 µM (inactive) |
| O=C1c2ccccc2-c2[nH]c3cn[nH]c(=O)c3c21 | > 100 µM (inactive) | > 100 µM (inactive) | > 100 µM (inactive) | > 100 µM (inactive) | > 100 µM (inactive) | > 100 µM (inactive) | 16.4 µM (inactive) |  | > 100 µM (inactive) | 43.9 µM (inactive) | 92.9 µM (inactive) | 64.9 µM (inactive) | 64.9 µM (inactive) | > 100 µM (inactive) | > 100 µM (inactive) | > 100 µM (inactive) |  | > 100 µM (inactive) | 78.7 µM (inactive) |
| O=C1C(Cl)=C(Cl)C(Cl)(Cl)C(Cl)C1(Cl)Cl (centres undefined) | 21.9 µM (inactive) | 18.8 µM (inactive) |  | 32.2 µM (inactive) | 13.7 µM (inactive) | 18.4 µM (inactive) | 16.9 µM (inactive) | 17.3 µM (inactive) | 21 µM (inactive) | 22.7 µM (inactive) | 19.6 µM (inactive) | 21.3 µM (inactive) | 19.9 µM (inactive) |  | 24.5 µM (inactive) | 27.4 µM (inactive) | 20 µM (inactive) | 20 µM (inactive) |  |
| Cc1nc2ccccc2n1Cc1nnc(-c2ccccc2)o1 | > 100 µM (inactive) | > 100 µM (inactive) |  | > 100 µM (inactive) | 55 µM (inactive) | > 100 µM (inactive) | > 100 µM (inactive) | > 100 µM (inactive) | 57.8 µM (inactive) | 63.1 µM (inactive) | 75 µM (inactive) | > 100 µM (inactive) | 91 µM (inactive) | 41.8 µM (inactive) | 52.5 µM (inactive) | > 100 µM (inactive) | 35.9 µM (inactive) | > 100 µM (inactive) |  |
| CON(C)C(=O)[C@H]1C[C@@]1(C)CO | > 100 µM (inactive) | > 100 µM (inactive) | > 100 µM (inactive) | > 100 µM (inactive) | > 100 µM (inactive) | > 100 µM (inactive) | > 100 µM (inactive) | > 100 µM (inactive) | > 100 µM (inactive) | > 100 µM (inactive) |  | > 100 µM (inactive) | > 100 µM (inactive) | > 100 µM (inactive) | > 100 µM (inactive) | > 100 µM (inactive) | > 100 µM (inactive) | > 100 µM (inactive) | > 100 µM (inactive) |
| CN1C(=O)C(CC(=O)O)NC1=S (centres undefined) | > 100 µM (inactive) | > 100 µM (inactive) |  | > 100 µM (inactive) | > 100 µM (inactive) | > 100 µM (inactive) | > 100 µM (inactive) | > 100 µM (inactive) | 51.4 µM (inactive) | 54 µM (inactive) | > 100 µM (inactive) | > 100 µM (inactive) | > 100 µM (inactive) | > 100 µM (inactive) | > 100 µM (inactive) | > 100 µM (inactive) | > 100 µM (inactive) | > 100 µM (inactive) |  |
| CC1CCC(C(C)C2C(O)CC3C4CC=C5CC(O)CCC5(C)C4CCC32C)NC1 (centres undefined) | 36.9 µM (inactive) | 20.6 µM (inactive) | 20.2 µM (inactive) | 15.9 µM (inactive) | 44.2 µM (inactive) | 34.5 µM (inactive) | 23.7 µM (inactive) | 11.9 µM (inactive) | 62.1 µM (inactive) | 39.4 µM (inactive) |  | 35.9 µM (inactive) | 48 µM (inactive) | 8.38 µM (inactive) | 43.1 µM (inactive) | 69.8 µM (inactive) | 65 µM (inactive) | 20.3 µM (inactive) | 70.8 µM (inactive) |
| O=C(O)c1cc(-c2ccc3c(O)c(O)ccc3c2)ccc1O | 43.6 µM (inactive) | > 75 µM (inactive) | 12.9 µM (inactive) | 23.1 µM (inactive) | 34.2 µM (inactive) | 68.4 µM (inactive) |  | > 75 µM (inactive) | > 75 µM (inactive) | 13.4 µM (inactive) | 15.9 µM (inactive) | > 75 µM (inactive) | > 7.5 µM (inactive) | 12.6 µM (inactive) | 18.6 µM (inactive) | > 75 µM (inactive) | 17.4 µM (inactive) | 14.8 µM (inactive) | 28 µM (inactive) |
| CNc1ccc([S+]([O-])Nc2ccccc2)cc1 (centres undefined) | 55.7 µM (inactive) | 53.2 µM (inactive) | 94.2 µM (inactive) | 56.2 µM (inactive) | 25.8 µM (inactive) | 41.1 µM (inactive) |  | 23.1 µM (inactive) | 19.5 µM (inactive) | 56 µM (inactive) | 39.8 µM (inactive) | 37.7 µM (inactive) | 55.8 µM (inactive) | 52.6 µM (inactive) | 97.7 µM (inactive) | > 100 µM (inactive) |  | > 100 µM (inactive) | 21.2 µM (inactive) |
| O=C(n1[nH]c(=O)n(-c2ccc([N+](=O)[O-])cc2)c1=O)C(Cl)(Cl)Cl | > 75 µM (inactive) | > 75 µM (inactive) | > 75 µM (inactive) | > 75 µM (inactive) | > 75 µM (inactive) | > 75 µM (inactive) |  | > 75 µM (inactive) | > 75 µM (inactive) | > 75 µM (inactive) | > 75 µM (inactive) | > 75 µM (inactive) | > 75 µM (inactive) | > 75 µM (inactive) | > 75 µM (inactive) | > 75 µM (inactive) | > 75 µM (inactive) | > 75 µM (inactive) | > 75 µM (inactive) |
